The source of these data is ChEMBL document CHEMBL5241059, “Evolution in non-peptide α-helix mimetics on the road to effective protein-protein interaction modulators” (Eur J Med Chem, 2021).

The target in assay [1] is Tumour suppressor p53/oncoprotein Mdm2 (Homo sapiens, UniProt Q00987). The assay is described as follows: Inhibition of HDM2-p53 (unknown origin) protein-protein interaction. It is filed as protein assay.
Assay [2] is described as follows: Inhibition of Mcl-1/NoxaB (unknown origin) protein-protein interaction. The arrangement: species or system Homo sapiens.
Assay [3] addresses Trypanothione reductase (Leishmania infantum, UniProt A4HSF7). The assay is described as follows: Inhibition of Leishmania infantum TryR oxidoreductase activity expressed in Escherichia coli BL21 (DE3) using TS2 and NADPH as substrate by incubated for 10 mins followed by substrate addition by DTNB-reagent based spectrophotometric method.
The subject of assay [4] is N2a. Briefly: Cytotoxicity against mouse N2a cells. Type of assay: functional, cell-based.
The subject of assay [5] is Human immunodeficiency virus 1. The assay is described as follows: Antiviral activity against HIV1 RRE-Rev assessed as inhibition of viral replication. It is filed as functional, organism-based.
Assay [6] concerns the target T1, Induced myeloid leukemia cell differentiation protein Mcl-1 (Homo sapiens, UniProt Q07820). The assay is described as follows: Displacement of fluorescent-labeled BH3 peptide from recombinant MCL1 (unknown origin) by fluorescence polarization-based competitive binding assay. Background: In fluorescence polarisation assays a small probe gives low polarisation when free and higher when bound to something large.

Assay [7] deals with Histone acetyltransferase p300/Hypoxia-inducible factor 1-alpha (Homo sapiens, UniProt Q09472+Q16665). The assay is described as follows: Inhibition of hypoxia-induced HIF1alpha/P300 interaction (unknown origin) incubated for 30 mins for fluorescence anisotropy competition assay. Type of assay: protein-complex assay.
Assay [8] deals with T2, Islet amyloid polypeptide (Homo sapiens) (UniProt P10997).
T2 sequence (whole entry): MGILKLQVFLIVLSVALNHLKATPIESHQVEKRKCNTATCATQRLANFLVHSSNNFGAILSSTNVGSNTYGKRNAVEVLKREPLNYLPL
The assay is described as follows: Disruption of beta-fibrillation of IAPP (unknown origin) assessed as half life of protein.

Assay [9] concerns N2a. The assay is described as follows: Effect on mouse N2a cells assessed as rescue of amyloid beta toxicity. It is filed as functional, cell-based.
In assay [10] the target is T3, Amyloid-beta precursor protein (Homo sapiens, UniProt P05067). Briefly: Binding affinity to amyloid beta 42 (unknown origin) assessed as dissociation constant.
T3 sequence (P05067 whole entry): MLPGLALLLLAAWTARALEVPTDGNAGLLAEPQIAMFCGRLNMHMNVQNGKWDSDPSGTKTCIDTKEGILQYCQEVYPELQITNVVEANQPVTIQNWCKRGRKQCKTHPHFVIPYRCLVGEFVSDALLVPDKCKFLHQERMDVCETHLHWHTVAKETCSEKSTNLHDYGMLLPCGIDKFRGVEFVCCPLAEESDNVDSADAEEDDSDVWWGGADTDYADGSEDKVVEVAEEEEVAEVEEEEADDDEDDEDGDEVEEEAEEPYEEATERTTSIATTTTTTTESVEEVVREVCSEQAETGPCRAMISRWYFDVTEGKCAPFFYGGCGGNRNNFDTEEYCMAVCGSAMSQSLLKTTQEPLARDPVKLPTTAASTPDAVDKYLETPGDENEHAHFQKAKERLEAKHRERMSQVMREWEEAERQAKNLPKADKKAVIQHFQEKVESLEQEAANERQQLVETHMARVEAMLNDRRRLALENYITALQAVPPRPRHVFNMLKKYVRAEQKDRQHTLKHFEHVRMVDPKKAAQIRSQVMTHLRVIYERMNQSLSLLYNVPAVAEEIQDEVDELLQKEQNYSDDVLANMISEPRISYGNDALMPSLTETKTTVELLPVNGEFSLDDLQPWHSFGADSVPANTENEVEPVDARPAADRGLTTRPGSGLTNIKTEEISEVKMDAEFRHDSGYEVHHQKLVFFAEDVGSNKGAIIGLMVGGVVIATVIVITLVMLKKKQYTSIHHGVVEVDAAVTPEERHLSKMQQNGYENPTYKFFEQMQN
The target in assay [11] is T1, Induced myeloid leukemia cell differentiation protein Mcl-1. The assay is described as follows: Inhibition of FITC-labeled BH3 peptide binding to MCL1 (unknown origin).
Assay [12] has as its system SJSA-1. Briefly: cells. Conditions: Homo sapiens.
The target in assay [13] is T3, Amyloid-beta precursor protein. Briefly: Binding affinity to amyloid beta 40 (unknown origin) by ITC method.
Assay [14] can be described thus: Binding affinity to TAR RNA assessed as dissociation constant.
Assay [15] relates to Human immunodeficiency virus 1. The assay is described as follows: Antiviral activity against HIV-1 pseudotyped virus expressing HXB-2 proteins infected in human TZM-bl cells assessed as inhibition of viral entry by luciferase based analysis. It is filed as functional, organism-based. The following applies: Human immunodeficiency virus 1, TZM-bl.
Assay [16] has as its target T1, Induced myeloid leukemia cell differentiation protein Mcl-1. The assay is described as follows: Binding affinity to fluorescent-labeled BH3 peptide from GST tagged MCL1 (172 to 320 residues) (unknown origin) expressed in Escherichia coli BL21 (DE3) incubated for 15 mins by fluorescence polarization-based competitive binding assay.
Assay [17] deals with Myc proto-oncogene protein (Homo sapiens, UniProt P01106). Briefly: Binding affinity to c-MYC (unknown origin) assessed as dissociation constant.
Sequence of Myc proto-oncogene protein (P01106 whole entry, the tested form may be a part): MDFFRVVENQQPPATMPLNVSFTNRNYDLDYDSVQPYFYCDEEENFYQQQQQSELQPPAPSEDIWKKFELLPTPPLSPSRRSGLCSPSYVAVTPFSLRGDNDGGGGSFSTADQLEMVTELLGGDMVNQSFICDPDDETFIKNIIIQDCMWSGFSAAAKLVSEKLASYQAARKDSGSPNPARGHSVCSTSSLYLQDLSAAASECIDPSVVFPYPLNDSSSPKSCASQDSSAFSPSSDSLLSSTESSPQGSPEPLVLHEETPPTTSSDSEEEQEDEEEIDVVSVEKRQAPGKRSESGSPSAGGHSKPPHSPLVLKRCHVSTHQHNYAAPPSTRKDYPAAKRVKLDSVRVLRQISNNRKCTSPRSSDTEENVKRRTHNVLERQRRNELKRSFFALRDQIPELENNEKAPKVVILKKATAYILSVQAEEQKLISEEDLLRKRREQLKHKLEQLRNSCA
In assay [18] the target is HIF1A/p300/CREB-binding protein (Homo sapiens, UniProt Q09472+Q16665+Q92793). Briefly: Binding affinity to hypoxia induced HIF-1 alpha/P300 CH1 domain (323 to 423 residues expressed in Escherichia coli (DE3)/CBP (unknown origin) interaction assessed as dissociation constant.
In assay [19] the test system is MDA-MB-231. The assay is described as follows: Antitumor activity against human MDA-MB-231 cells xenografted in mouse assessed reduction in tumor volume measured for 30 days relative to control. Type of assay: functional. Set-up: scale not given: the % may be the effect or the level left. Conditions: time 30 day.
The nature of assay [20]: Binding affinity to RNA S protein (unknown origin) assessed as dissociation constant by ITC method. The arrangement: species or system Homo sapiens. Background: In ITC the heat of successive injections is recorded.
The target of assay [21] is T1, Induced myeloid leukemia cell differentiation protein Mcl-1. Briefly: Displacement of fluorescein tagged Bak BH3 peptide from MCL-1 (172 to 327 residues) (unknown origin) by fluorescence polarization competition assay.

Structures are written as SMILES.

Sequence of Tumour suppressor p53/oncoprotein Mdm2 (P04637 whole entry): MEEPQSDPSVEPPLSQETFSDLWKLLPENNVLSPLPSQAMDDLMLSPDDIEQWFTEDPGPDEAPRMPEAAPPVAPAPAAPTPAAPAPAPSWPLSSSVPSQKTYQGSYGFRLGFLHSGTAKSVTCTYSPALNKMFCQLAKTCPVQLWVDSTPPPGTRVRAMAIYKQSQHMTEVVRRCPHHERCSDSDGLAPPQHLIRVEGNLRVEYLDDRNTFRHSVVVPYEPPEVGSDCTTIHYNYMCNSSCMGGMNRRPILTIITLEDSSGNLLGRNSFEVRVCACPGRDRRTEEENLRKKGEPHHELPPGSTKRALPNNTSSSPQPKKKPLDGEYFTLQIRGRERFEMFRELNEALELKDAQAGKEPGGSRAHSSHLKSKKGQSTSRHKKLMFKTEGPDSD
Sequence of Tumour suppressor p53/oncoprotein Mdm2 (Q00987 whole entry): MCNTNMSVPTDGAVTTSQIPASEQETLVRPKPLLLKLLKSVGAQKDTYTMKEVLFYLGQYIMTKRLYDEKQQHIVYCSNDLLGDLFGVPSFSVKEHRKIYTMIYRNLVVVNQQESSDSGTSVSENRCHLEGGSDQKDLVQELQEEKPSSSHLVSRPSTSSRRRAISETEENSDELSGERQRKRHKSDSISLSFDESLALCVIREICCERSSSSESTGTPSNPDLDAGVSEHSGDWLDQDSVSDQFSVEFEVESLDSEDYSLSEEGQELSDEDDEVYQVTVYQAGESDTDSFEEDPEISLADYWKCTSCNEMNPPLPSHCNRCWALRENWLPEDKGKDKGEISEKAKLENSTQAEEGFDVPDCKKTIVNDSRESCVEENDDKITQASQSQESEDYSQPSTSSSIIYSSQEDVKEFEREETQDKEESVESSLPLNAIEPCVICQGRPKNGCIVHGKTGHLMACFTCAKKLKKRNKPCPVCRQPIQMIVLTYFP
T1 sequence (Q07820 whole entry): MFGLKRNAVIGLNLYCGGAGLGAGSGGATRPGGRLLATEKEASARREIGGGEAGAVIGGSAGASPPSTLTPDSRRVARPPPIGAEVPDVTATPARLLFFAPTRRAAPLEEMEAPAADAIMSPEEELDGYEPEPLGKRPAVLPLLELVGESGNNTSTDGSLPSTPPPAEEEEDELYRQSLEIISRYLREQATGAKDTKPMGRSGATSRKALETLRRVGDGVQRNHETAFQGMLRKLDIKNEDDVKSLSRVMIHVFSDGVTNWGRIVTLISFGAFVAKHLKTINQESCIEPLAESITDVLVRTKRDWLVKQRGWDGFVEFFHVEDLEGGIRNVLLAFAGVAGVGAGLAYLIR
Sequence of Trypanothione reductase (A4HSF7 whole entry): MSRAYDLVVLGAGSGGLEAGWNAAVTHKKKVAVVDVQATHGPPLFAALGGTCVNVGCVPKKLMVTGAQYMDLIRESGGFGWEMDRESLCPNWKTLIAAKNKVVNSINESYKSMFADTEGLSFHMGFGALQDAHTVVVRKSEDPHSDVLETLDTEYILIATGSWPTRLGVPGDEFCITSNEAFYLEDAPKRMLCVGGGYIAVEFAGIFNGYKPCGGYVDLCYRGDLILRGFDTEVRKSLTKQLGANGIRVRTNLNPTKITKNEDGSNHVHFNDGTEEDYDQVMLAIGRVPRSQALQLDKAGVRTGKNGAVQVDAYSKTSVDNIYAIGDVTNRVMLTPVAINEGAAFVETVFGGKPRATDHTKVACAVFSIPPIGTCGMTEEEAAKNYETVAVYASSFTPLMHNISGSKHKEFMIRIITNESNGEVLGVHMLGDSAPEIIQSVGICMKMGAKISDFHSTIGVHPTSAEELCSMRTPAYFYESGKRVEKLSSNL

By IC50 is commonly meant the midpoint of a concentration-inhibition curve. In the case of `CCC(C)CN(C(=O)c1ccc(N(Cc2ccc3ccccc3c2)C(=O)c2ccc(NCC(C)C)cc2)cc1)c1ccc(C(=O)N[C@H](C(=O)O)[C@H](C)CC)cc1` (stereo partly drawn), the values for the IC50 in [1] and in [2] were 9.3 µM and 24 µM, respectively.

Take `NCCNCc1cncn1-c1ccc(-c2nc(CCc3ccc(-c4ccccc4)cc3)cs2)c(OCCN2CNCC2=O)c1`: the IC50 in [3] amounted to 8.6 µM.

For `CC(C)COc1nc(C(=O)Nc2ccc(C(=O)Nc3ccc(C(=O)Nc4ccc(C(=O)O)nc4OCC(=O)O)nc3OCC(=O)O)nc2OCc2ccccc2)ccc1[N+](=O)[O-]`, the IC50 in [4] is 2.5 µM.

Consider `COc1cc(CCN)c(-c2cc(C)c(-c3cc(CCN)c(OC)cc3CCN)cc2C)cc1CCN`, for which the IC50 in assay [5] was found to be 14 µM.

Usually Ki stands for the dissociation constant of the complex between target and ligand, obtained from inhibition or displacement. `Oc1ccc(CCNc2nc3nc(n2)N2CCN(CC2Cc2ccccc2)c2nc(nc(Nc4ccc(Oc5ccccc5)cc4)n2)NCCOCCOCCOCCN3)cc1` (stereo not drawn): the Ki in assay [6] stood at 2.6 µM.

For the compound `CC(C)COc1cc(C(=O)Nc2ccc(C(=O)O)cc2OC(C)C)ccc1NC(=O)c1ccc([N+](=O)[O-])c(OCC(C)C)c1`, in assay [7], the IC50 amounted to 9.2 µM.

Turning to `Oc1ccc(CCNc2nc3nc(n2)N2CCN(CC2Cc2ccccc2)c2nc(nc(Nc4ccc(Oc5ccccc5)cc4)n2)NCCOCCOCCOCCOCCN3)cc1` (stereo not drawn), the Ki in assay [6] came out at 2.6 µM.

As for `CCCc1c(NC(=O)Nc2sccc2CCC(=O)O)ccc2sc(N(CCC(=O)O)C(=O)OCC)nc12`, the T1/2 in assay [8] came to 23.1 h.

As a reminder, the Kd is a measure of binding affinity in units of concentration. `CCC(C)Oc1cc(C(=O)Nc2cccc3c(OCC(=O)O)cc(C(=O)OC)nc23)nc2c(NC(=O)c3cc(OCC(=O)O)c4cccc(NC(=O)c5cc(OC(C)CC)c6cccc([N+](=O)[O-])c6n5)c4n3)cccc12` (stereo not drawn): in [9], the IC50 came to 3 µM. The Kd in [10] came to 2.2 µM.

Turning to `Cc1cc(-c2cc(CCN)ccc2CCN)c(C)cc1-c1cc(CCN)ccc1CCN`, in assay [5], the IC50 was 47 µM.

As to `CC(C)Oc1cc(NC(=O)[C@H](Cc2ccccc2)NC(=O)c2ccc(N)c(OCc3ccccc3)c2)ccc1C(=O)NCC(=O)O`, the IC50 in assay [1] is 11.9 µM; in [2], more than 100 µM.

Turning to `CC(C)C[C@H](NC(=O)c1ccc(NC(=O)[C@@H](N)Cc2ccccc2)c(OCCc2c[nH]c3ccccc23)c1)C(=O)O`, it took 15 µM to reach half-maximal inhibition in assay [1] (IC50).

Turning to `CC(C)(C)OC(=O)N(Cc1ccccc1)c1nc(NCC(=O)O)c2ncn(Cc3cccc4ccccc34)c2n1`, the IC50 in assay [11] turned out to be 72 µM.

In assay [12], `CC(C)[C@@H](CS(=O)(=O)C(C)C)N1C(=O)[C@@](C)(CC(=O)O)C[C@H](c2cccc(Cl)c2)[C@H]1c1ccc(Cl)cc1` [NAVTEMADLIN] came in with an IC50 of 0.025 µM.

In turn, `NCCCOc1nc(C(=O)O)ccc1NC(=O)c1ccc(NC(=O)c2ccc([N+](=O)[O-])c(OCc3ccccc3)n2)c(OCCCN)n1` yielded an IC50 in [4] of 1.4 µM. This compound also gave a Kd in assay [13] of 0.7 µM.

Turning to `NCCCOc1nc(C(=O)O)ccc1NC(=O)c1ccc(NC(=O)c2ccc([N+](=O)[O-])c(OCCCN)n2)c(OCCCN)n1`, in assay [14], the Kd was found to be 4.1 µM. Further, the half-inhibitory concentration (IC50) in assay [15] came out at 25 µM.

In turn, `O=C(O)CCCNc1nc(NCCc2ccc(O)cc2)nc(N2CCN(c3nc(NCCC(=O)O)nc(Nc4ccc(Oc5ccccc5)cc4)n3)CC2Cc2ccccc2)n1` (stereo not drawn) registered a Ki in [16] of 0.53 µM.

With `NCCNCc1cncn1-c1ccc(-c2nc(CCc3ccc4ccccc4c3)cs2)c(OCCN2CNCC2=O)c1`, in assay [3], the IC50 was found to be 5.1 µM.

For `CC(C)COc1cc(C(=O)O)ccc1NC(=O)c1ccc([N+](=O)[O-])c(OCc2ccc3ccccc3c2)c1`, the Kd in assay [17] amounted to 10 µM.

With `CC(C)C[C@@H]1NCCN([C@@H](CC(C)C)C(=O)N2CCN([C@@H](CCC(N)=O)C(N)=O)C(=O)[C@@H]2C)C1=O`, the Kd in [18] came out at 5.3 µM. This compound yielded an Activity in assay [19] of 50%.

`CC(C)Oc1cc(NC(=O)[C@H](Cc2ccccc2)NC(=O)c2ccc(N)c(OCc3ccc(Cl)cc3)c2)ccc1C(=O)NCC(=O)O`: in assay [20], the Kd turned out to be 1.85 µM.

For the compound `Cc1cc(-c2ccc(C(=O)O)c(OCc3ccccc3)c2)cc(C)c1Cl`, the Ki in [21] is 2.9 µM.
